Test results as given in US8859768B2, “Heteroaryls and uses thereof” (Millennium Pharmaceuticals, Inc., priority 2010, dated 2014).

Target: T1, Human VPS34 (Homo sapiens, UniProt Q8NEB9)
T1 construct: GST (N); host or cells: SF9 insect cells (baculovirus)
Assay: Human VPS34 Enzyme Assay (Adapta TR-FRET)
Format: biochemical
Conditions: compound at 1.111 μM; read-out: Average VPS34 % INH @ 1.111 μM
Protocol: VPS34 (accession number GB:BC033004) was cloned into pDEST20-Thombin as N-terminal GST tagged fusion proteins using the Gateway system (Invitrogen, catalog#11804-013). The sequences were verified before recombinant protein expression using the Baculovirus Expression System with Gateway® Technology.
For expression VPS34 was infected at 1MOI in SF9 cells and harvested 72 hours post infection.
For purification, VPS34 is purified by Glutathione Sepharose 4 Fast Flow (GE Healthcare #17-5132-03) followed by HiTrap Q (GE Healthcare #17-1153-01).
Human VPS34 Enzyme Assay Method
100 nL compounds in DMSO are added to wells of a 384 well microtitre plate (Greiner 780076). At room temperature: 5 ul VPS34 reaction buffer (Invitrogen Assay Buffer Q (diluted 1 in 5 with nanopure water) plus 2 mM DTT and 2 mM MnCl2) containing ATP (20 uM, Promega) and 200 uM PI-PS substrate (Invitrogen PV5122) is added followed immediately by 5 ul VPS34 reaction buffer (as above) containing VPS34 (5 nM, Millennium Protein Sciences Group) and the mixture is incubated with shaking at room temperature for 1 hour. Then 5 ul VPS34 stop-detect mix (as per Invitrogen Adapta Assay kit (PV5009) instructions (contains kinase quench buffer, TR-FRET buffer, Adapta Eu anti-ADP antibody and Alexa Fluor 647 ADP tracer)) is added to quench the reaction. The plates are then incubated for 30 minutes at room temperature with shaking and then read on a BMG PheraStar Plus reader.
3) VPS34 is assayed using Adapta™ Universal Kinase Assay Kit (Invitrogen).

T1 sequence (Q8NEB9 whole entry): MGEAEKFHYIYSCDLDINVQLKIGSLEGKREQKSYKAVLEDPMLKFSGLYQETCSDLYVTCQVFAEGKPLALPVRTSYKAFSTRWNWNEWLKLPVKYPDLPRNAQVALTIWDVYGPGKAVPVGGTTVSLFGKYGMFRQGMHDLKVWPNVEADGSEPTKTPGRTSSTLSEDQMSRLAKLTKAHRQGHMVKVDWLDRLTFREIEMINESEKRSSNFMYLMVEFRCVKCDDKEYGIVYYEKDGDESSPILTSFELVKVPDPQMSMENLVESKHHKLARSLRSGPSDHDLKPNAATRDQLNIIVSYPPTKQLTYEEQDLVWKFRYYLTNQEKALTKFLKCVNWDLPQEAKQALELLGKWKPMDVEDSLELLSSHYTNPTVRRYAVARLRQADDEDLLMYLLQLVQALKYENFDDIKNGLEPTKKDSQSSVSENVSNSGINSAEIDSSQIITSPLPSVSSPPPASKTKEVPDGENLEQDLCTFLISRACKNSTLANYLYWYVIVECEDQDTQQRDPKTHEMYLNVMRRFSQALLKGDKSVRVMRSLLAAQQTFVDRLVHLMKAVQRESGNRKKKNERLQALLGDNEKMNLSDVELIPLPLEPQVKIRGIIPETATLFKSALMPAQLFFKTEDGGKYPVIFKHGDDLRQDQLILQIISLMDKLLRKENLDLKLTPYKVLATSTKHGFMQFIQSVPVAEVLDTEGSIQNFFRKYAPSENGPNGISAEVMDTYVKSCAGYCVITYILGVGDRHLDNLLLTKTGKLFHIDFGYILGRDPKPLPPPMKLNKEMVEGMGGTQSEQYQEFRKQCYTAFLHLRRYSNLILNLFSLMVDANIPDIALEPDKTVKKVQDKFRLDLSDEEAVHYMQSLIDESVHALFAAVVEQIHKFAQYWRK

inhibition at 1.111 µM	SMILES
51%	CC(=O)Nc1cc(-c2nc(C(=O)NC[C@@H](C)O)c(-c3ccccc3Cl)o2)c(C)cn1 (stereo in doubt) [Compound I-62, 2-(2-acetamido-5-methylpyridin-4-yl)-5-(2-chlorophenyl)-N-(2-hydroxypropyl)-1,3-oxazole-4-carboxamide]
131%	CC(=O)Nc1cc(-c2cc(C(=O)NC[C@@H](C)O)c(-c3ccccc3Cl)o2)c(C)cn1 (stereo in doubt) [Compound I-66, 5-(2-acetamido-5-methylpyridin-4-yl)-2-(2-chlorophenyl)-N-(2-hydroxypropyl)-3-furamide]
120%	CC(=O)Nc1cc(-c2cc(C(N)=O)c(-c3ccccc3Cl)o2)ccn1 [Compound I-1, 5-[2-(acetylamino)pyridin-4-yl]-2-(2-chlorophenyl)-3-furamide]
124%	CC(=O)Nc1cc(-c2cc(C(=O)O)c(-c3ccccc3Cl)o2)ccn1 [Compound I-2, 5-[2-(acetylamino)pyridin-4-yl]-2-(2-chlorophenyl)-3-furoic acid]
112%	CC(=O)Nc1cc(-c2nc(C(N)=O)c(-c3ccccc3Cl)o2)c(C)cn1 [Compound I-3, 2-[2-(acetylamino)-5-methylpyridin-4-yl]-5-(2-chlorophenyl)-1,3-oxazole-4-carboxamide]
118%	CC(=O)Nc1cc(-c2nc(-c3nnc[nH]3)c(-c3ccccc3Cl)o2)c(C)cn1 [Compound I-4, N-{4-[5-(2-chlorophenyl)-4-(4H-1,2,4-triazol-3-yl)-1,3-oxazol-2-yl]-5-methylpyridin-2-yl}acetamide]
108%	CC(=O)Nc1cc(-c2nc(-c3ccccc3Cl)c(C(N)=O)o2)c(C)cn1 [Compound I-5, 2-[2-(acetylamino)-5-methylpyridin-4-yl]-4-(2-chlorophenyl)-1,3-oxazole-5-carboxamide]
99%	CC(=O)Nc1cc(-c2nc(C(=O)O)c(-c3ccccc3Cl)o2)c(C)cn1 [Compound I-6, 2-[2-(acetylamino)-5-methylpyridin-4-yl]-5-(2-chlorophenyl)-1,3-oxazole-4-carboxylic acid]
147%	CC(=O)Nc1cc(-c2cc(-c3nnc[nH]3)c(-c3cc(CN(C)C)ccc3Cl)o2)c(C)cn1 [Compound I-7, N-{4-[5-{2-chloro-5-[(dimethylamino)methyl]phenyl}-4-(4H-1,2,4-triazol-3-yl)-2-furyl]-5-methylpyridin-2-yl}acetamide]
7%	CC(=O)Nc1ccc(-c2nc(-c3nnc[nH]3)c(-c3ccccc3Cl)o2)cc1 [Compound I-8, N-{4-[5-(2-chlorophenyl)-4-(4H-1,2,4-triazol-3-yl)-1,3-oxazol-2-yl]phenyl}acetamide]
64%	CC(=O)Nc1cc(-c2nc(C(=O)NCc3ccco3)c(-c3ccccc3Cl)o2)c(C)cn1 [Compound I-9, 2-(2-acetamido-5-methylpyridin-4-yl)-5-(2-chlorophenyl)-N-(2-furylmethyl)-1,3-oxazole-4-carboxamide]
132%	CC(=O)Nc1cc(-c2nc(-c3ncco3)c(-c3ccccc3Cl)o2)c(C)cn1 [Compound I-10, N-{4-[5′-(2-chlorophenyl)-2,4′-bi-1,3-oxazol-2′-yl]-5-methylpyridin-2-yl}acetamide]
22%	CC(=O)Nc1cc(-c2nc(C(=O)NCCC(C)C)c(-c3ccccc3Cl)o2)c(C)cn1 [Compound I-11, 2-(2-acetamido-5-methylpyridin-4-yl)-5-(2-chlorophenyl)-N-(3-methylbutyl)-1,3-oxazole-4-carboxamide]
61%	CC(=O)Nc1cc(-c2cc(C(=O)NCCn3ccnc3)c(-c3ccccc3Cl)o2)c(C)cn1 [Compound I-12, 5-(2-acetamido-5-methylpyridin-4-yl)-2-(2-chlorophenyl)-N-[2-(1H-imidazol-1-yl)ethyl]-3-furamide]
95%	CC(=O)Nc1cc(-c2nc(C(=O)NCCCCO)c(-c3ccccc3Cl)o2)c(C)cn1 [Compound I-13, 2-(2-acetamido-5-methylpyridin-4-yl)-5-(2-chlorophenyl)-N-(4-hydroxybutyl)-1,3-oxazole-4-carboxamide]
88%	CC(=O)Nc1cc(-c2cc(C(=O)NC3CCC3)c(-c3ccccc3Cl)o2)c(C)cn1 [Compound I-14, 5-(2-acetamido-5-methylpyridin-4-yl)-2-(2-chlorophenyl)-N-cyclobutyl-3-furamide]

inhibition at 1.111 µM	SMILES
103%	CC(=O)Nc1cc(-c2cc(C(=O)Nc3nccs3)c(-c3ccccc3Cl)o2)c(C)cn1 [Compound I-15, 5-(2-acetamido-5-methylpyridin-4-yl)-2-(2-chlorophenyl)-N-(1,3-thiazol-2-yl)-3-furamide]
131%	CC(=O)Nc1cc(-c2nc(-c3cc(CN4CCCC4)ccc3Cl)c(-c3nnc[nH]3)o2)c(C)cn1 [Compound I-16, N-(4-{4-[2-chloro-5-(pyrrolidin-1-ylmethyl)phenyl]-5-(4H-1,2,4-triazol-3-yl)-1,3-oxazol-2-yl}-5-methylpyridin-2-yl)acetamide]
127%	CC(=O)Nc1cc(-c2cc(-c3nnc[nH]3)c(N3CCCS3(=O)=O)o2)c(C)cn1 [Compound I-17, N-{4-[5-(1,1-dioxidoisothiazolidin-2-yl)-4-(4H-1,2,4-triazol-3-yl)-2-furyl]-5-methylpyridin-2-yl}acetamide]
120%	O=C(Nc1cc(-c2nc(-c3nnc[nH]3)c(-c3ccccc3Cl)o2)ccn1)C1CC1 [Compound I-18, N-{4-[5-(2-chlorophenyl)-4-(4H-1,2,4-triazol-3-yl)-1,3-oxazol-2-yl]pyridin-2-yl}cyclopropanecarboxamide]
48%	CC(=O)Nc1cc(-c2cc(C(=O)Nc3ccccc3)c(-c3ccccc3Cl)o2)c(C)cn1 [Compound I-19, 5-(2-acetamido-5-methylpyridin-4-yl)-2-(2-chlorophenyl)-N-phenyl-3-furamide]
37%	CC(=O)Nc1cc(-c2nc(C(=O)NCc3ccccn3)c(-c3ccccc3Cl)o2)c(C)cn1 [Compound I-20, 2-(2-acetamido-5-methylpyridin-4-yl)-5-(2-chlorophenyl)-N-(pyridin-2-ylmethyl)-1,3-oxazole-4-carboxamide]
25%	CC(=O)Nc1cc(-c2nc(C(=O)NC(C)C)c(-c3ccccc3Cl)o2)c(C)cn1 [Compound I-21, 2-(2-acetamido-5-methylpyridin-4-yl)-5-(2-chlorophenyl)-N-isopropyl-1,3-oxazole-4-carboxamide]
110%	COC(CNC(=O)c1cc(-c2cc(NC(C)=O)ncc2C)oc1-c1ccccc1Cl)OC [Compound I-22, 5-(2-acetamido-5-methylpyridin-4-yl)-2-(2-chlorophenyl)-N-(2,2-dimethoxyethyl)-3-furamide]
139%	CC(=O)Nc1cc(-c2cc(-c3nnc[nH]3)c(-c3ccccc3Cl)o2)c(C)cn1 [Compound I-23, N-{4-[5-(2-chlorophenyl)-4-(4H-1,2,4-triazol-3-yl)-2-furyl]-5-methylpyridin-2-yl}acetamide]
102%	CC(=O)Nc1cc(-c2cc(C(=O)NCCCn3ccnc3)c(-c3ccccc3Cl)o2)c(C)cn1 [Compound I-24, 5-(2-acetamido-5-methylpyridin-4-yl)-2-(2-chlorophenyl)-N-[3-(1H-imidazol-1-yl)propyl]-3-furamide]
41%	CC(=O)Nc1cc(-c2nc(C(=O)NCCOCCO)c(-c3ccccc3Cl)o2)c(C)cn1 [Compound I-25, 2-(2-acetamido-5-methylpyridin-4-yl)-5-(2-chlorophenyl)-N-[2-(2-hydroxyethoxy)ethyl]-1,3-oxazole-4-carboxamide]
129%	CC(=O)Nc1cc(-c2cc(-c3nnc[nH]3)c(N3CCCC(N(C)C)C3)o2)c(C)cn1 (centres unmarked) [Compound I-26, N-(4-{5-[3-(dimethylamino)piperidin-1-yl]-4-(4H-1,2,4-triazol-3-yl)-2-furyl}-5-methylpyridin-2-yl)acetamide]
133%	CC(=O)Nc1cc(-c2cc(C(C)=O)c(-c3ccccc3Cl)o2)c(C)cn1 [Compound I-27, N-{4-[4-acetyl-5-(2-chlorophenyl)-2-furyl]-5-methylpyridin-2-yl}acetamide]
81%	CC(=O)Nc1cc(-c2nc(-c3cc(CN4CCCC4)ccc3Cl)c(C(N)=O)o2)c(C)cn1 [Compound I-28, 2-(2-acetamido-5-methylpyridin-4-yl)-4-[2-chloro-5-(pyrrolidin-1-ylmethyl)phenyl]-1,3-oxazole-5-carboxamide]
116%	COCCNC(=O)c1cc(-c2cc(NC(C)=O)ncc2C)oc1-c1ccccc1Cl [Compound I-29, 5-(2-acetamido-5-methylpyridin-4-yl)-2-(2-chlorophenyl)-N-(2-methoxyethyl)-3-furamide]
114%	CC(=O)Nc1cc(-c2nc(-c3cc[nH]n3)c(-c3ccccc3Cl)o2)c(C)cn1 [Compound I-30, N-{4-[5-(2-chlorophenyl)-4-(1H-pyrazol-3-yl)-1,3-oxazol-2-yl]-5-methylpyridin-2-yl}acetamide]
